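Five compound concentrations were applied to cells in 96-well plates for 48 hours; endpoints were derived by simple linear interpolation of the resulting dose-response curve. Here, GI50 denotes the concentration required for 50% inhibition of growth.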 Activity calls are given as the source filed them. Cut-off read from the data, not from the text of the source: active = GI50 up to about 1.1 µM and inactive = higher.
Experiments:
Assay in all cases: NCI anticancer screen, dose series, 48 h
SK-MEL-5 = test system: SK-MEL-5
OVCAR-5 = test system: OVCAR-5
A549 = test system: A549
SR = test system: SR
MDA-N = test system: MDA-N
HCC 2998 = test system: HCC 2998
BT-549 = test system: BT-549
A498 = test system: A498
HOP-62 = test system: HOP-62
KM12 = test system: KM12
HT-29 = test system: HT-29
MDA-MB-435 = test system: MDA-MB-435
CAKI-1 = test system: CAKI-1
EKVX = test system: EKVX
LOX IMVI = test system: LOX IMVI
Malme-3M = test system: Malme-3M
NCI-H522 = test system: NCI-H522
ACHN = test system: ACHN
NCI-H460 = test system: NCI-H460
HL-60 = test system: HL-60

Measured: GI50

CCOC(=O)COc1cc(-c2ccccc2)nc2cc(F)ccc12
inactive: SK-MEL-5 > 100 µM | OVCAR-5 > 100 µM | A549 > 100 µM | SR > 100 µM | MDA-N > 100 µM | HCC 2998 > 100 µM | BT-549 > 100 µM | A498 > 100 µM | HOP-62 > 100 µM | KM12 > 100 µM | HT-29 > 100 µM | MDA-MB-435 > 100 µM | CAKI-1 > 100 µM | EKVX > 100 µM | LOX IMVI > 100 µM | Malme-3M > 100 µM

COc1cc(/C=N/c2ccc(Oc3ccc(Cl)cc3)c(Cl)c2)cc(OC)c1OC
inactive: NCI-H522 12.3 µM | SK-MEL-5 17.7 µM | OVCAR-5 34.7 µM | A549 18.5 µM | ACHN 29.1 µM | SR 26.9 µM | MDA-N 22.6 µM | HCC 2998 19.3 µM | NCI-H460 19.3 µM | BT-549 15.9 µM | HOP-62 23.8 µM | KM12 21.3 µM | HT-29 22.2 µM | MDA-MB-435 28.2 µM | CAKI-1 22.9 µM | HL-60 15 µM | EKVX 21.1 µM | LOX IMVI 16.2 µM | Malme-3M 15.5 µM

CNc1nc(N)c(N=O)c(Nc2ccc(Br)cc2)n1
inactive: NCI-H522 > 100 µM | SK-MEL-5 > 100 µM | OVCAR-5 > 100 µM | A549 > 100 µM | ACHN 53.2 µM | SR > 100 µM | MDA-N > 100 µM | HCC 2998 > 100 µM | NCI-H460 > 100 µM | BT-549 > 100 µM | HOP-62 > 100 µM | KM12 > 100 µM | HT-29 > 100 µM | MDA-MB-435 > 100 µM | HL-60 > 100 µM | EKVX 13.7 µM | LOX IMVI > 100 µM | Malme-3M > 100 µM

CC1(C)CC(=O)c2c(nc3ccc4ccccc4c3c2-c2ccc(NC(=O)CCCCCCCCC(=O)Nc3ccc(-c4c5c(nc6ccc7ccccc7c46)CC(C)(C)CC5=O)cc3)cc2)C1
inactive: SK-MEL-5 > 100 µM | OVCAR-5 > 100 µM | A549 > 100 µM | ACHN > 100 µM | SR > 100 µM | MDA-N > 100 µM | NCI-H460 > 100 µM | BT-549 > 100 µM | A498 > 100 µM | HOP-62 > 100 µM | KM12 > 100 µM | HT-29 > 100 µM | MDA-MB-435 > 100 µM | CAKI-1 > 100 µM | HL-60 > 100 µM | EKVX > 100 µM | LOX IMVI > 100 µM

CCNCC(O)c1ccc(N)c([N+](=O)[O-])c1 (centres undefined)
inactive: NCI-H522 > 100 µM | SK-MEL-5 > 100 µM | OVCAR-5 > 100 µM | A549 > 100 µM | ACHN > 100 µM | SR > 100 µM | MDA-N > 100 µM | NCI-H460 > 100 µM | BT-549 > 100 µM | A498 > 100 µM | HOP-62 > 100 µM | HT-29 > 100 µM | MDA-MB-435 > 100 µM | CAKI-1 > 100 µM | HL-60 > 100 µM | EKVX > 100 µM | LOX IMVI > 100 µM

N=C(N)NC(CC(=O)O)c1ccccc1 (centres undefined)
inactive: NCI-H522 > 100 µM | SK-MEL-5 > 100 µM | OVCAR-5 > 100 µM | A549 > 100 µM | ACHN > 100 µM | SR > 100 µM | MDA-N > 100 µM | NCI-H460 > 100 µM | BT-549 > 100 µM | A498 > 100 µM | HOP-62 > 100 µM | KM12 > 100 µM | HT-29 > 100 µM | MDA-MB-435 > 100 µM | CAKI-1 > 100 µM | EKVX > 100 µM | LOX IMVI > 100 µM | Malme-3M > 100 µM

C/C=C(/C)c1cnc(CC(C)C)c(=O)[nH]1
inactive: SK-MEL-5 > 100 µM | OVCAR-5 > 100 µM | A549 > 100 µM | ACHN > 100 µM | SR > 100 µM | MDA-N > 100 µM | HCC 2998 > 100 µM | NCI-H460 > 100 µM | BT-549 > 100 µM | A498 > 100 µM | HOP-62 > 100 µM | KM12 > 100 µM | HT-29 > 100 µM | MDA-MB-435 > 100 µM | CAKI-1 > 100 µM | EKVX > 100 µM | LOX IMVI > 100 µM

Cc1cn(CC(=S)NCCc2c[nH]c3ccccc23)c(=O)[nH]c1=O
inactive: SK-MEL-5 35.5 µM | OVCAR-5 33 µM | A549 74.1 µM | ACHN 69.3 µM | SR 28.1 µM | MDA-N 48 µM | BT-549 > 100 µM | A498 60.1 µM | HOP-62 > 100 µM | KM12 > 100 µM | HT-29 31.4 µM | MDA-MB-435 74.5 µM | HL-60 56.8 µM | EKVX 17 µM | LOX IMVI > 100 µM | Malme-3M 69.5 µM

Cc1ccc(C)c(/C(=N\N=C(N)N)C2CC2)c1
inactive: NCI-H522 28.6 µM | SK-MEL-5 36.2 µM | OVCAR-5 29.9 µM | A549 43.3 µM | ACHN 42.7 µM | SR 37.6 µM | MDA-N 23.4 µM | HCC 2998 20.4 µM | NCI-H460 18.1 µM | BT-549 25.5 µM | A498 47.5 µM | HOP-62 35.8 µM | KM12 39.9 µM | HT-29 29.3 µM | MDA-MB-435 22.8 µM | CAKI-1 > 100 µM | EKVX 43.9 µM | LOX IMVI 32.4 µM | Malme-3M 41.5 µM

O=C(c1cscc1CCc1ccccc1)c1cscc1CCc1ccccc1
inactive: NCI-H522 > 100 µM | SK-MEL-5 > 100 µM | OVCAR-5 > 100 µM | A549 > 100 µM | ACHN > 100 µM | SR 80 µM | MDA-N > 100 µM | HCC 2998 > 100 µM | NCI-H460 > 100 µM | BT-549 > 100 µM | A498 > 100 µM | HOP-62 > 100 µM | KM12 > 100 µM | MDA-MB-435 > 100 µM | CAKI-1 > 100 µM | EKVX > 100 µM | LOX IMVI > 100 µM | Malme-3M > 100 µM

CC(CCOc1c2ccoc2cc2oc(=O)ccc12)C1=CC(=O)C(C)(C)O1 (centres undefined)
inactive: NCI-H522 13.9 µM | SK-MEL-5 > 100 µM | OVCAR-5 > 100 µM | A549 > 100 µM | ACHN > 100 µM | SR > 100 µM | MDA-N > 100 µM | HCC 2998 > 100 µM | NCI-H460 > 100 µM | BT-549 71 µM | HOP-62 > 100 µM | KM12 > 100 µM | HT-29 > 100 µM | MDA-MB-435 > 100 µM | CAKI-1 > 100 µM | HL-60 > 100 µM | EKVX > 100 µM | LOX IMVI > 100 µM | Malme-3M > 100 µM

Source: ChEMBL document CHEMBL1201862, “PubChem BioAssay data set” (2004)
